Measurements taken from patent publication US10144690B2, “1,2-diphenylethylene glycol compounds for combating aging of the skin, and cosmetic use thereof” (L'OREAL, priority 2014, dated 2018).

System: phospho-AMPK (Thr-172) (p-AMPK)
Experiment: p-AMPK expression by Western blotting in normal human epidermal keratinocytes (p-AMPK/GAPDH ratio relative to control)
Format: cell-based
Settings: 12 hours incubation
Protocol: Normal human epidermal keratinocytes are seeded at 180 000 cells per well and cultured in SFM culture medium (supplier Gibco) supplemented with 0.25 ng/ml EGF, 25 μg/ml of pituitary extract and 25 μg/ml gentamicin, up to confluence, and incubated in a humid oven at 37° C. and 5% CO2. The culture medium was then replaced with test medium (SFM (Gibco) supplemented with 25 μg/ml gentamicin) containing or not containing (control) the test compounds, the combinations or the reference (AICAR—(5-amino-4-imidazolecarboxamide riboside) at 500 μM). The cells were then incubated for 12 hours.
The level of expression of p-AMPK was analyzed by Western blotting.
At the end of the incubation, the proteins were extracted and quantified and then separated by electrophoresis on 10% polyacrylamide gel and then transferred onto a nitrocellulose membrane.
Between each successive revelation, the antibodies were detached using a “stripping” buffer. The images were acquired with a Fuji LAS 3000 chemiluminescence scanner (Fujifilm) and the densitometric analyses were performed using the Multigauge software (Fujifilm).
An increase in the phosphorylated form of AMPK (active form of the enzyme) relative to the control is evaluated in this test.
Expressed in the form of the p-AMPK/GAPDH ratio relative to the control (100%): […]

COc1ccc([C@@H](O)[C@H](O)c2ccc(OC)cc2)cc1 [Compound 1]
p-AMPK/GAPDH ratio relative to the control (100%) (test compound 1 μM): 133%
p-AMPK/GAPDH ratio relative to the control (100%) (test compound 10 μM): 171%
p-AMPK/GAPDH ratio relative to the control (100%) (test compound 100 μM): 198%

COc1cc(C(O)C(O)c2ccc(O)c(OC)c2)ccc1O (stereo not drawn) [Compound 3]
p-AMPK/GAPDH ratio relative to the control (100%) (test compound 1 μM): 112%
p-AMPK/GAPDH ratio relative to the control (100%) (test compound 10 μM): 147%
p-AMPK/GAPDH ratio relative to the control (100%) (test compound 100 μM): 158%

Oc1ccc(C(O)C(O)c2cc(O)cc(O)c2)cc1 (stereo not drawn) [Compound 4]
p-AMPK/GAPDH ratio relative to the control (100%) (test compound 1 μM): 132%
p-AMPK/GAPDH ratio relative to the control (100%) (test compound 10 μM): 140%
p-AMPK/GAPDH ratio relative to the control (100%) (test compound 100 μM): 159%

COc1ccc(C(O)[C@H](O)c2ccc(OC)cc2)cc1 (stereo partly drawn) [Compound 2]
p-AMPK/GAPDH ratio relative to the control (100%) (test compound 1 μM): 94%
p-AMPK/GAPDH ratio relative to the control (100%) (test compound 10 μM): 134%
p-AMPK/GAPDH ratio relative to the control (100%) (test compound 100 μM): 149%
